Among the data in ChEMBL document CHEMBL3272206, “Importance of the aromatic ring in adrenergic amines. 2. Synthesis and adrenergic activity of some nonaromatic six- and eight-membered ring analogs of beta-phenylethanolamine” (J Med Chem, 1976) are Activity, Km and Vmax values, retold here.

The source made the active and inactive calls. The rule behind the calls is not given here.

For data set [1], the species on record is Rattus norvegicus. The experiment in a line: Adrenergic activity in albino Sprague-Dawley rat vas deferens assessed as contractile response at 0.3 mM measured after 1 to 5 mins. The class given is functional, tissue-based.
The species named for data set [2] is Rattus norvegicus. Nature of the data set: Adrenergic activity in reserpine-pretreated albino Sprague-Dawley rat vas deferens assessed as contractile response. The format is functional, tissue-based.
Data set [3] deals with Vas deferens. The experiment in a line: Adrenergic activity in reserpine-pretreated albino Sprague-Dawley rat vas deferens assessed as potentiation of norepinephrine-induced contractile response at 30 uM. The class given is functional, tissue-based.
Substrate in data set [4]: NCC(O)/C1=C/CC/C=C\CC1
Nature of the data set: (§1) Activity at PNMT in bovine adrenal medulla using DL-beta-phenylethanolamine and SAM-14CH3 as substrate by Michaelis-Menten analysis. Conditions: Bos taurus.

Substrate in data set [5]: NCC(O)C1=C/C=C\C=C/C=C\1
Described as §1. Conditions: Bos taurus.

Substrate in data set [6]: NCC(O)C1=C/CCCC/C=C\1
Described as §1. Conditions: Bos taurus.

Substrate in data set [7]: NCC(O)C1CC=CCC1
The data set is described as §1. The note with it: Bos taurus.

Substrate in data set [8]: NCC(O)C1CCCCC1
The description is as §1. Conditions: Bos taurus.

Substrate in data set [9]: NCC(O)C1CCCCCCC1
The description is as §1. Conditions: Bos taurus.

Substrate in data set [10]: NCC(O)c1ccccc1
The description is as §1. The note with it: Bos taurus.

Substrate in data set [11]: NCC(O)/C1=C/CC/C=C\CC1
The experiment in a line: (§2) Activity at PNMT in bovine adrenal medulla using DL-beta-phenylethanolamine and SAM-14CH3 as substrate measured per mg of protein by Michaelis-Menten analysis. The note with it: Bos taurus.

Substrate in data set [12]: NCC(O)C1=C/C=C\C=C/C=C\1
The data set is described as §2. The note with it: Bos taurus.

Substrate in data set [13]: NCC(O)C1=C/CCCC/C=C\1
Described as §2. The note with it: Bos taurus.

Substrate in data set [14]: NCC(O)C1CC=CCC1
The data set is described as §2. Conditions: Bos taurus.

Substrate in data set [15]: NCC(O)C1CCCCC1
The data set is described as §2. The note with it: Bos taurus.

Substrate in data set [16]: NCC(O)C1CCCCCCC1
The data set is described as §2. Conditions: Bos taurus.

Substrate in data set [17]: NCC(O)c1ccccc1
Described as §2. The note with it: Bos taurus.

What is called Km is the concentration of substrate that gives half-maximal velocity. One may read the Vmax as the rate approached at saturating substrate.

In the case of `NCC(O)C1CCCCCCC1` (stereo not given), the result in data set [1] and in [3] was Active. Also, in [2], the result was inactive.

For the molecule `C[C@@H](N)[C@@H](O)c1ccccc1`, the result in [1] and in [3] was Active. For the same molecule, the result in data set [2] was inactive.

For `NCC(O)C1=C/C=C\C=C/C=C\1` (stereo not given), the outcome in data set [1] and in data set [3] was Active. Besides, in data set [2], the outcome was inactive.

As to `NCC(O)C1CCCCC1` (stereo not given), the outcome in [1] and in data set [3] was Active. Further, the outcome in data set [2] was inactive.

As for `NCC(O)C1/C=C\CCCCC1` (stereo not given), the result in [1] and in [3] was Active. Further, the outcome in data set [2] was inactive.

Regarding `NCC(O)C1CC=CCC1` (stereo not given), the result in [1] and in data set [3] was Active. Further, the outcome in [2] was inactive.

Consider `NCC(O)/C1=C/CC/C=C\CC1` (stereo not given), for which the outcome in data set [1] was Active. Besides, in data set [2], the result was inactive.

As for `NCC(O)c1ccccc1` (stereo not given), the result in [1] and in data set [3] was Active. Also, in data set [2], the outcome was inactive.

As to `NCC(O)C1=C/CCCC/C=C\1` (stereo not given), the result in data set [1] and in data set [3] was Active. In [2], the outcome was inactive.

B1: Phenylethanolamine N-methyltransferase (Bos taurus), P10938 (protein)
chain: MSGTDRSQAAGAVPDSDPGLAAVSSAYQRFEPRAYLRNNYAPPRGDLSCPDGVGPWKLRCLAQTFATGEVSGRTLIDIGSGPTIYQLLSACAHFEDITMTDFLEVNRQELRLWLREEPGAFDWSVYSQHVCLIEGKGESWQEKECQLRARVKRILPIDVHRPQPLGAGGLAPLPADALVSAFCLEAVSPDLASFQRALDHITTLLRPGGHLLLIGALEESWYLAGEARLAVVPVREEEVREALVRTATRCGICARTPMPAHLQTGVDDVKGIFFTRAQKKVGV
As to B1, the Michaelis-Menten constant (Km) in [4] is 155 µM; in data set [5], 430 µM; in [6] it was 128 µM; in data set [7] it was 57 µM; in data set [8], 40 µM; in data set [9], 26 µM. In addition, the Km in [10] worked out at 136 µM. For the same molecule, the maximum rate (Vmax) stood at 2.75 nmol/min in data set [11]; 1.73 nmol/min in data set [12]; 2.61 nmol/min in [13]; 1.37 nmol/min in data set [14]; 0.99 nmol/min in data set [15]; 0.96 nmol/min in data set [16]. Besides, the maximal velocity (Vmax) in data set [17] was found to be 2.1 nmol/min.
